Patent US6444656B1, “Antiviral phosphonate nucleotides” (BioChem Pharma, Inc., priority 1992, dated 2002)

Columns and labels:
Assay type in all cases: cell-based
HBV = assay: Anti-HBV activity: inhibition of HBV replication in 2.2.15 cells; conditions: twelve days postadministration
Method: (§1) The 2.2.15 cell line derived from HepG2 cells transfected with episomal HBV DNA (Sells et al (1987) Proc. Natl. Acad. Sci. USA 84:1005-1009 and (1988) J. Virol. 62:2836-2844) was used. The assay was performed basically as described by Ojwang et al. (1995) Antimicrobial Agents and Chemotherapy 39:2570-2573 ). The 2.2.15 cells are seeded (10^5 cells per well) in 300 ul of minimal essential medium supplemented with 10% fetal bovine serum, using 24-well plates pre-coated with 150 ul of 0.1 mg of collagen (rat tail) type I per ml reconstituted in 0.02 M acetic acid. The collagen treatment helped the cells 10 disperse evenly over the culture plate. Once the cells reach confluency (approximately 1 day), the culture medium is replaced every 2 days with medium containing various concentrations of the indicated test compound. In this experiment, the nucleosides 2′,3′-dideoxy-3′-thiacytidine (3TC) or 2′,3′-dideoxycytidine (ddC) are used as positive controls (Ojwang et al. (1995)). Twelve days postadministration of the test compounds, cells are harvested and DNA is prepared as described by Fennewald et al. ( (1995) Antiviral Res. 26:37-54.). At the same time, the culture medium is saved and analyzed for the presence of extracellular viral nucleic acids.
The integrated and episomal HBV DNAs are easily separated by using agarose gel electrophoresis which allows for the differential quantification of the two species of HBV DNA. […] As a molecular probe, a subgenomic fragment of the HBV DNA is cloned into the pCRII TA cloning vector (Invitrogen) plasmid between the two EcoR1 sites. The subgenomic HBV DNA fragment is obtained by using the PCR technique to amplify a portion of the HBV genome (nucleotide positions 2134 to 143). Total DNA isolated from 2.2.15 cells is used as the PCR template with primer sets corresponding to nucleotide positions 2134 to 2151 (forward) and 143 to 126 (reverse). […] In addition, the filters are also exposed to a photoimaging plate and quantitated, using a Fujix Bioimaging Analyzer System BAS 1000 (or similar) instrument.

HIV-1 = assay: Anti-HIV activity: inhibition of HIV-1 replication in infected established cell lines; conditions: laboratory strains of HIV-1, established cell lines, 4 to 6 days post-infection
Method: (§2) Laboratory strains of HIV-1, were used to infect established cell lines by using a specific multiplicity of infection (MOI) of the virus for 1 hour at 37° C. prior to washing the cells and re-suspension in medium containing increasing concentrations of drug (or test compound). At 4 to 6 days post-infection, drug-treated and control wells are analyzed for an HIV-1 induced cytopathic effect and/or for the presence of viral reverse transcriptase (RT) or viral p24 antigen in the culture medium (Buckheit and Swanstrom (1991) AIDS Res. Human Retroviruses 7:295-302; Ojwang, et al (1994) J. Acquired Immune Deficiency Syndrome 7:560-570; Ojwang, J. O., et al (1995) Antimicrobial Agents and Chemotherapy. 39:2426-2435 and Rando et al (1995) J. Biol. Chem. 270:1754-1760).

established cell lines = assay: Cytotoxicity (CCTD50) reported with the anti-HIV-1 assay; conditions: cytotoxicity Table 1 (HIV-1 assay)
Method: as §2

[1] = Cytotoxicity (CC50) reported with the anti-HBV assay; conditions: human; cytotoxicity of Table 2 (HBV assay, 2.2.15 cells)
Method: as §1

[2] = test system: 2.2.15 cell line derived from HepG2 cells; assay: as above; conditions: cytotoxicity of Table 2 (HBV assay, 2.2.15 cells)
Method: as §1

| Compound | EC50 (HBV; Hepatitis B virus, read-out: EC50 (μg/ml), inhibition of HBV replication) | EC50 (HIV-1; Human immunodeficiency virus 1, read-out: EC50 (μg/ml), inhibition of HIV-1 replication) | CCTD50 (established cell lines) | CC50 [1] | EC50 (μg/ml), inhibition of HBV replication (HBV) | EC50 (μg/ml), inhibition of HIV-1 replication (HIV-1) | CC50 [2] |
| --- | --- | --- | --- | --- | --- | --- | --- |
| Nc1nc(O)c2ncn(C[C@H]3O[C@@H](P(=O)(O)O)C[C@@H]3F)c2n1 [Compound 23] | > 30 µg/mL | > 10 µg/mL | >10 µg/mL | > 300 µg/mL |  |  |  |
| Nc1nc2c(nc(Cl)n2CC2CCC(P(=O)(Oc3ccccc3)Oc3ccccc3)O2)c(=O)[nH]1 (stereo not drawn) [Example 16, [5-(2-Amino-8-chloro-6-oxo-1,6-dihydro-purin-9-ylmethyl)-tetrahydro-furan-2-yl]-phosphonic Acid Diphenyl Ester] |  |  | >10 µg/mL |  | 11 µg/mL | 0.46 µg/mL | >300 µg/mL |
| Ammonium; 5-(2-Amino-6-oxo-1,6-dihydro-purin-9-ylmethyl)-3,4-dihydroxy-tetrahydro-furan-2-phosphonate [Example 10] |  |  | >10 µg/mL |  | 0.295 µg/mL | 5 µg/mL | >300 µg/mL |
